Measurements from patent US10556926B2, “Synthetic artificial peptides with antimicrobial effect” (priority 2014, dated 2020).

Key:
[1] = tested on: human cell line U937; experiment: Mixed culture experiment (bacterially contaminated cell culture), eukaryotic cells; format: cell-based; details: 25 and 50 μM peptide, two hours, with S. xylosus
Method: (§1) Destruction of the bacteria membranes by the antimicrobial peptides was investigated in a flow cytometric method with the help of a living/dead staining method in combination with an internal calibration and counting system. For this purpose, SYBR Green I (Sigma-Aldrich) was used as total staining and propidium iodide (Sigma-Aldrich) was used as contrast staining for membrane-damaged bacteria. […] The flow analysis was carried out on a Cytomics FC500 Instrument (Beckmann Coulter, Munich, Germany) equipped with an argon laser (488 nm) and the corresponding emission filters for SYBR Green I (525 nm) and propidium iodide (620 nm). […] Then, the mixture was incubated for 10 min in the dark at room temperature and then measured by flow cytometry. The number of events in each gate was captured and evaluated using the CXP Analyses 2.2 Software. The total number of living and dead bacteria was calculated. […]
(§2) The ability of the antimicrobial peptides to be used as a therapeutic active ingredient was investigated by reference to its selective antimicrobial properties in model mixed culture experiments. […] Then, the mixed cell cultures were stained and measured by flow cytometry as described in example 3, the measurement scale being adapted to the measurement of the larger eukaryotic cells.

[2] = tested on: Staphylococcus xylosus; experiment: Mixed culture experiment (bacterially contaminated cell culture), bacteria; format: cell-based; details: 25 and 50 μM peptide, two hours, with U937
Method: as §1, §2

SMILES: CC[C@H](C)[C@H](NC(=O)CN)C(=O)NCC(=O)N[C@@H](C)C(=O)N[C@H](C(=O)N[C@@H](CC(C)C)C(=O)N[C@@H](CCCCN)C(=O)N[C@H](C(=O)N[C@@H](CC(C)C)C(=O)N[C@H](C(=O)N[C@H](C(=O)NCC(=O)N[C@@H](CC(C)C)C(=O)N1CCC[C@H]1C(=O)N[C@@H](C)C(=O)N[C@@H](CC(C)C)C(=O)N[C@H](C(=O)N[C@@H](CO)C(=O)N[C@@H](Cc1c[nH]c2ccccc12)C(=O)N[C@H](C(=O)N[C@@H](CCCCN)C(=O)N[C@@H](CCCNC(=N)N)C(=O)N[C@@H](CCCCN)C(=O)N[C@@H](CCCNC(=N)N)C(=O)N[C@@H](CCC(N)=O)C(=O)N[C@@H](CCC(N)=O)C(N)=O)[C@@H](C)CC)[C@@H](C)CC)[C@@H](C)O)[C@@H](C)O)C(C)C)C(C)C [Melittin]
- Effect on eukaryotic U937 cells in mixed culture [1]: destroys all of the eukaryotic U937 cells
- Killing of S. xylosus cells in mixed culture [2]: comprehensive killing of bacteria cells
